Legend:
[1] = target: UNC-49B homomeric GABA receptor (Caenorhabditis elegans, UniProt G5EEY3); experiment: Two-electrode voltage clamp of Xenopus oocytes injected with UNC-49B.1 mRNA; assay type: cell-based, C. elegans; conditions: for response of oocytes to agonist: applied at 1 mM or 10 mM
Protocol: (§1) Oocytes were removed from Xenopus laevis frogs anesthetized by immersion in 0.2% tricaine for 15-30 minutes. Harvested ovarian lobes were defolliculated by incubation in 2 mg/ml of collagenase (Type IA, Sigma) for 2 hours at room temperature on an orbital shaker in calcium-free ND-96 solution containing in mM: 96 NaCl, 2 KCl, 1 MgCl2, and 5 HEPES (pH=7.6). The oocytes were rinsed 5-6 times with a Barth's solution that contained (in mM): 88 NaCl, 1 KCl, 0.41 CaCl2, 0.33 Ca(NO3)2, 1 MgSO4, 2.4 NaHCO3 and 10 HEPES (pH=7.4), and selected stage V-VI oocytes were stored at 18C in Barth's solution supplemented with 1 mM Na-Pyruvate, 0.01 mg/ml gentamycin and an antibiotic-antimycotic solution containing 100 units/ml of penicillin, 100 μg/ml streptomycin and 0.25 μg/ml of Amphotericin B (Gibco BRL).
(§2) Oocytes were injected with cRNA (prepared using the mMessage mMachine kit, Ambion) into the cytoplasm 24 hours later. Glass capillary tubes (World Precision Instruments) were pulled to a fine tip on a vertical micropipette puller (David Kopf) and broken back to an outside diameter of 21 μm. RNA stocks were diluted to a final concentration of 0.75 μg/μl and injected into the oocytes (32 nl) with a microinjector (World Precision Instruments).
(§3) Electrophysiological recordings were performed 3-7 days following injection and were carried out at room temperature in a control Ringers solution containing in mM: 115 NaCl, 2.5 KCl, 1.0 BaCL2, and 10 HEPES (pH=7.4). Two electrode voltage clamp recordings were obtained with a Geneclamp amplifier (Axon Instruments) using […] KCl-filled microelectrodes (1-5 M). Recordings were carried out at a holding potential of −60 mV. Concentration-effect data were fit to the logistic equation: I=Imax/{1+(EC50/[agonist])^nH}, where Imax is the maximal current, [agonist] is the concentration, EC50 is the concentration of agonist resulting in half maximal activation and nH is an empirical parameter describing the steepness of fit and having the same meaning as the Hill coefficient. NFIT (Island Products) was used for non-linear curve fitting. Data are presented as the mean S.E.M.; n is the number of oocytes tested. All combinations of subunits were tested in parallel in at least two independent experiments (at least 4 oocytes for each combination of mRNAs per experiment). The effect of incorporating the UNC-49C subunit was consistent from one experiment to another. Single channel recordings were performed as described in except that 1 mM GABA was applied continuously. Single channel conductance was determined by fitting Gaussian curves to all points histograms.

UNC-49C = experiment: Two-electrode voltage clamp of Xenopus oocytes injected with UNC-49C RNA; assay type: cell-based, C. elegans; conditions: any concentration
Protocol: as §1, §2, §3

[2] = target: UNC-49B/C heteromeric GABA receptor (Caenorhabditis elegans, UniProt G5EE10+G5EEY3); experiment: Two-electrode voltage clamp of Xenopus oocytes injected with equal amounts of UNC-49B and UNC-49C RNA; assay type: cell-based; conditions: Xenopus oocytes co-expressing UNC-49B and UNC-49C
Protocol: as §1
Oocytes were injected with cRNA (prepared using the mMessage mMachine kit, Ambion) into the cytoplasm 24 hours later. […]
Electrophysiological recordings were performed 3-7 days following injection and were carried out at room temperature in a control Ringers solution containing in mM: 115 NaCl, 2.5 KCl, 1.0 BaCL2, and 10 HEPES (pH=7.4). […] Single channel conductance was determined by fitting Gaussian curves to all points histograms.

Chain of UNC-49B homomeric GABA receptor (G5EEY3 entry or part of it): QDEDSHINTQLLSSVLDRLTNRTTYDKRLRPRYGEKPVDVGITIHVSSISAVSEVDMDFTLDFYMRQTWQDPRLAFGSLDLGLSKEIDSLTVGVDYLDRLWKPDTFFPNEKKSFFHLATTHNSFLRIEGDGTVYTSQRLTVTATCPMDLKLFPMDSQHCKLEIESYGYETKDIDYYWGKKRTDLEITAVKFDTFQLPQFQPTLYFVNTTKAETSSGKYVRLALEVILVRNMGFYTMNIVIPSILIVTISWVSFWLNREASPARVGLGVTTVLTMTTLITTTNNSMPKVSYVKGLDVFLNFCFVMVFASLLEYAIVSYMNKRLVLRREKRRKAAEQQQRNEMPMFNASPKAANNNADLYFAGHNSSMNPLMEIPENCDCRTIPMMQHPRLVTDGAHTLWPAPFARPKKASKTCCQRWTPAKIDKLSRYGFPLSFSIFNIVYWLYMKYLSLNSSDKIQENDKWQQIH
Chain of UNC-49B/C heteromeric GABA receptor (G5EE10 entry or part of it): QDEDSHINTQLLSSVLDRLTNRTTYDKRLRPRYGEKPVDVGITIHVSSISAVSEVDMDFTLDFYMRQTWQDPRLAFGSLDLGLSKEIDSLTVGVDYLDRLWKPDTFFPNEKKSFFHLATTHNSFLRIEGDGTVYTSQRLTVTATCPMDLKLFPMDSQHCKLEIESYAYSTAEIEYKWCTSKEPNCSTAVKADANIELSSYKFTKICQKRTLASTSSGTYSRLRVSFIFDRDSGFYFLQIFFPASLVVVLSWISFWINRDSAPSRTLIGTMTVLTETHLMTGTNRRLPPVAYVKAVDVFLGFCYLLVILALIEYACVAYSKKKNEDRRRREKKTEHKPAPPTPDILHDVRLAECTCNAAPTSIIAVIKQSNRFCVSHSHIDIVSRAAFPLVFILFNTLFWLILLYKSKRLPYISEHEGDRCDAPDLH
Chain of UNC-49B/C heteromeric GABA receptor (G5EEY3 entry or part of it): as the sequence (G5EEY3 entry or part of it) above

Row | SMILES | current when exposed to agonist ([1]; UNC-49B.1-injected Xenopus oocytes) | EC50 ([1]; UNC-49B.1-injected Xenopus oocytes, holding potential -60 mV, representative experiment, read-out: GABA concentration required to produce half-maximal channel activity (EC50)) [µM] | Hill coefficient ([1]; UNC-49B.1-injected Xenopus oocytes, representative experiment) | response of oocytes to agonist (UNC-49C) | EC50 [2] [µM] | Hill coefficient [2] | response of oocytes to agonist ([1]; UNC-49B-expressing oocytes) | currents produced by agonist ([1]; UNC-49B-expressing oocytes, 10 mM, n=4)
1 | NCCCC(=O)O [GABA, gamma-aminobutyric acid] | robust, desensitizing, dose-dependent current | 43.7 | 2.94 | failed to respond | 108 | 1.33 | – | –
2 | N[C@@H](CCC(=O)O)C(=O)O [glutamate] | – | – | – | equally unresponsive | – | – | did not respond | –
3 | NCC(=O)O [glycine] | – | – | – | equally unresponsive | – | – | did not respond | –
4 | NCCC(=O)O [β-alanine] | – | – | – | equally unresponsive | – | – | – | only slightly greater than baseline noise
